Here are results for 26 molecules from patent publication US8278345B2, “Inhibitors of glutaminyl cyclase” (Probiodrug AG, priority 2006, dated 2012).

For this test, the target named is hQC (Homo sapiens, UniProt Q16769). Nature of the test: Inhibitor assay for glutaminyl cyclase activity (fluorometric, H-Gln-βNA / H-Gln-AMC). Type of test: biochemical. An outline of the steps: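 Coupled fluorometric assay at 30 °C with pyroglutamyl aminopeptidase, in Tris/HCl pH 8.0 with EDTA, substrate H-Gln-βNA (0.2 mM; ex/em 320/410 nm) or H-Gln-AMC (ex/em 380/460 nm), initiated by QC. Screening: 4 mM inhibitor, substrate at 1 KM; Ki from progress curves fitted to competitive inhibition.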

[1] abbreviates: compound from preparative synthesis, purified, read-out: IC50 hQC.

Read-outs that look alike come from different tables or passages of the source.

Sequence of hQC (Q16769 29-361): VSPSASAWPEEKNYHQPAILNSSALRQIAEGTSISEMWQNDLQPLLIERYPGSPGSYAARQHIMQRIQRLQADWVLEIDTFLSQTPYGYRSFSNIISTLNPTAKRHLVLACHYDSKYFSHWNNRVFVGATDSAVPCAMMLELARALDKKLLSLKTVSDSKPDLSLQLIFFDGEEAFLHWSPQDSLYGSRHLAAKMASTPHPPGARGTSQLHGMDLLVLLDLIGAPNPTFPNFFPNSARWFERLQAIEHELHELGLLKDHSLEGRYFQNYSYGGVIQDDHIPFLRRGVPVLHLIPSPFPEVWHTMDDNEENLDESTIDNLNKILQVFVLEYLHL

With `CC(=O)C1=C(O)C(=O)N(c2ccc3[nH]cnc3c2)C1c1ccc2nsnc2c1` (stereo not shown) [Compound 376, 4-Acetyl-1-(1H-benzoimidazol-5-yl)-5-benzo[c][1,2,5]thiadiazol-5-yl-3-hydroxy-1,5-dihydro-pyrrol-2-one], the half-maximal inhibitory concentration (IC50) (in general, the concentration at which inhibition is half-maximal) under setting [1] is 0.0087 µM and the IC50 (read-out: IC50) was found to be 0.004 µM. Regarding `CC1=C(O)C(=O)N(CCCn2ccnc2)C1/C=C/c1ccccc1` (stereo not shown) [Compound 33, 3-Hydroxy-1-(3-imidazol-1-yl-propyl)-4-methyl-5-(styryl)-1,5-dihydro-pyrrol-2-one], the half-maximal inhibitory concentration (IC50) (read-out: IC50) worked out at 3.1 µM.

On to `O=C1C(O)=C(c2cccc(O)c2)C(C(O)CO)N1CCCn1ccnc1` (stereo not shown) [Compound 9, 5-(1,2-Dihydroxy-ethyl)-3-hydroxy-4-(3-hydroxy-phenyl)-1-(3-imidazol-1-yl-propyl)-1,5-dihydro-pyrrol-2-one], for which, for the setting “read-out: IC50”, the half-inhibitory concentration (IC50) is 2.2 µM.

On to `Cc1ccc(C2C(c3c[nH]c4ccccc34)=C(O)C(=O)N2CCCn2ccnc2)cc1C` (stereo not shown) [Compound 123, 5-(3,4-Dimethyl-phenyl)-3-hydroxy-1-(3-imidazol-1-yl-propyl)-4-(1H-indol-3-yl)-1,5-dihydro-pyrrol-2-one], for which the IC50 under setting [1] turned out to be 0.562 µM and the IC50 (read-out: IC50) is 0.04 µM.

For `CCCC(=O)C1=C(O)C(=O)N(c2ccc3[nH]cnc3c2)C1C1CC1` (stereo not shown) [Compound 449, 1-(1H-Benzoimidazol-5-yl)-4-butyryl-5-cyclopropyl-3-hydroxy-1,5-dihydro-pyrrol-2-one], the IC50 (read-out: IC50) worked out at 2.2 µM. Same read-out and setting: next, `Cc1ccc2c(C3C(c4c[nH]c5ccccc45)=C(O)C(=O)N3CCCn3ccnc3)c[nH]c2c1` (stereo not shown) [Compound 130, 3-Hydroxy-1-(3-imidazol-1-yl-propyl)-4-(1H-indol-3-yl)-5-(6-methyl-1H-indol-3-yl)-1,5-dihydro-pyrrol-2-one]: 1.3 µM. Take `CCC1=C(O)C(=O)N(c2ccc3[nH]cnc3c2)C1c1ccc2nonc2c1` (stereo not shown) [Compound 431, 1-(1H-Benzoimidazol-5-yl)-5-(benzo[c][1,2,5]oxadiazol-5-yl)-4-ethyl-3-hydroxy-1,5-dihydro-pyrrol-2-one]: under “read-out: IC50”, the IC50 amounted to 2.11 µM. Still for that read-out and setting: next, `Cc1ccc(C2C(c3cccc(O)c3)=C(O)C(=O)N2CCCn2ccnc2)cc1C` (stereo not shown) [Compound 15, 5-(3,4-Dimethyl-phenyl)-3-hydroxy-4-(3-hydroxy-phenyl)-1-(3-imidazol-1-yl-propyl)-1,5-dihydro-pyrrol-2-one]: 1.3 µM; `CCCC(=O)C1=C(O)C(=O)N(c2ccc3[nH]cnc3c2)C1c1cccc(C)n1` (stereo not shown) [Compound 334, 1-(1H-Benzoimidazol-5-yl)-4-butyryl-3-hydroxy-5-(6-methyl-pyridin-2-yl)-1,5-dihydro-pyrrol-2-one]: 2.65 µM; `O=C1C(O)=C(c2ccc(O)cc2)C(c2ccc(O)cc2)N1CCCn1ccnc1` (stereo not shown) [Compound 181, 3-Hydroxy-4,5-bis-(4-hydroxy-phenyl)-1-(3-imidazol-1-yl-propyl)-1,5-dihydro-pyrrol-2-one]: 0.04 µM. Same read-out and setting: the figure for `CC1=C(O)C(=O)N(CCCn2ccnc2)C1c1ccccc1` (stereo not shown) [Compound 34, 3-Hydroxy-1-(3-imidazol-1-yl-propyl)-4-methyl-5-phenyl-1,5-dihydro-pyrrol-2-one] is 1.3 µM; for `O=C1C(O)=C(c2ccc(O)cc2)C(CO)N1CCCn1ccnc1` (stereo not shown) [Compound 174, 3-Hydroxy-5-hydroxymethyl-4-(4-hydroxy-phenyl)-1-(3-imidazol-1-yl-propyl)-1,5-dihydro-pyrrol-2-one] it is 0.4 µM; for `O=C1C(O)=C(c2c[nH]c3ccccc23)C(c2ccncc2)N1CCCn1ccnc1` (stereo not shown) [Compound 136, 3-Hydroxy-1-(3-imidazol-1-yl-propyl)-4-(1H-indol-3-yl)-5-pyridin-4-yl-1,5-dihydro-pyrrol-2-one] it is 0.04 µM. In the case of `CC1=C(O)C(=O)N(CCCn2ccnc2)C1c1cccc(O)c1` (stereo not shown) [Compound 53, 3-Hydroxy-5-(3-hydroxy-phenyl)-1-(3-imidazol-1-yl-propyl)-4-methyl-1,5-dihydro-pyrrol-2-one], the 50% inhibitory concentration (IC50) (read-out: IC50) was determined as 1.3 µM. Consider `CC(C)CC(=O)C1=C(O)C(=O)N(c2ccc3[nH]cnc3c2)C1CCC(=O)O` (stereo not shown) [Compound 447, 3-[1-(1H-Benzoimidazol-5-yl)-4-hydroxy-3-(3-methyl-butyryl)-5-oxo-2,5-dihydro-1H-pyrrol-2-yl]-propionic acid], for which the IC50 (read-out: IC50) amounted to 2.56 µM. `Cc1ccc2c(C3C(c4c[nH]c5ccccc45)=C(O)C(=O)N3c3ccc4[nH]cnc4c3)c[nH]c2c1` (stereo not shown) [Compound 320, 1-(1H-Benzoimidazol-5-yl)-3-hydroxy-4-(1H-indol-3-yl)-5-(6-methyl-1H-indol-3-yl)-1,5-dihydro-pyrrol-2-one]: the 50% inhibitory concentration (IC50) (read-out: IC50) is 9.49 µM. With `O=C1C(O)=C(c2cccc(O)c2)C(c2cc(Cl)cc(Cl)c2O)N1CCCn1ccnc1` (stereo not shown) [Compound 4, 5-(3,5-Dichloro-2-hydroxy-phenyl)-3-hydroxy-4-(3-hydroxy-phenyl)-1-(3-imidazol-1-yl-propyl)-1,5-dihydro-pyrrol-2-one], where the note is “read-out: IC50”, the concentration for half-maximal inhibition (IC50) was found to be 2.2 µM. For the molecule `CCC1=C(O)C(=O)N(CCCn2ccnc2)C1/C=C/c1ccccc1` (stereo not shown) [Compound 235, 4-Ethyl-3-hydroxy-1-(3-imidazol-1-yl-propyl)-5-(styryl)-1,5-dihydro-pyrrol-2-one], under “read-out: IC50”, the IC50 was 5.8 µM. As for `CCCCCC(=O)C1=C(O)C(=O)N(c2ccc3[nH]cnc3c2)C1C1CCOC1` (stereo not shown) [Compound 274, 1-(1H-Benzoimidazol-5-yl)-4-hexanoyl-3-hydroxy-5-(tetrahydro-furan-3-yl)-1,5-dihydro-pyrrol-2-one], the IC50 (read-out: IC50) was determined as 2.47 µM.

For `CCCCCC1=C(O)C(=O)N(CCCn2ccnc2)C1c1ccc(C)cc1` (stereo not shown) [Compound 184, 3-Hydroxy-1-(3-imidazol-1-yl-propyl)-4-pentyl-5-p-tolyl-1,5-dihydro-pyrrol-2-one], the IC50 (read-out: IC50) came to 0.04 µM.

Turning to `O=C1C(O)=C(c2c[nH]c3ccccc23)C(c2ccc(CO)o2)N1c1ccc2[nH]cnc2c1` (stereo not shown) [Compound 409, 1-(1H-Benzoimidazol-5-yl)-3-hydroxy-5-(5-hydroxymethyl-furan-2-yl)-4-(1H-indol-3-yl)-1,5-dihydro-pyrrol-2-one], the 50% inhibitory concentration (IC50) (read-out: IC50) is 0.67 µM. In the case of `CC1=C(O)C(=O)N(CCCn2ccnc2)C1C1CC1` (stereo not shown) [Compound 46, 5-Cyclopropyl-3-hydroxy-1-(3-imidazol-1-yl-propyl)-4-methyl-1,5-dihydro-pyrrol-2-one], the IC50 (read-out: IC50) is 2.2 µM. In the case of `CC1=C(O)C(=O)N(CCCn2ccnc2)C1c1cc(Cl)cc(Cl)c1O` (stereo not shown) [Compound 20, 5-(3,5-Dichloro-2-hydroxy-phenyl)-3-hydroxy-1-(3-imidazol-1-yl-propyl)-4-methyl-1,5-dihydro-pyrrol-2-one], for the setting “read-out: IC50”, the 50% inhibitory concentration (IC50) came to 0.4 µM. Same read-out and setting: next, `CCCCCC1C(C(C)C)=C(O)C(=O)N1CCCn1ccnc1` (stereo not shown) [Compound 62, 3-Hydroxy-1-(3-imidazol-1-yl-propyl)-4-isopropyl-5-pentyl-1,5-dihydro-pyrrol-2-one]: 0.04 µM.

In the case of `CCCCCC(=O)C1=C(O)C(=O)N(c2ccc3[nH]cnc3c2)C1c1ccc(C)o1` (stereo not shown) [Compound 258, 1-(1H-Benzoimidazol-5-yl)-4-hexanoyl-3-hydroxy-5-(5-methyl-furan-2-yl)-1,5-dihydro-pyrrol-2-one], the half-maximal inhibitory concentration (IC50) (read-out: IC50) was determined as 2.56 µM.

Consider `CCCC(=O)C1=C(O)C(=O)N(c2ccc3[nH]cnc3c2)C1c1c[nH]cn1` (stereo not shown) [Compound 359, 1-(1H-Benzoimidazol-5-yl)-4-butyryl-3-hydroxy-5-(1H-imidazol-4-yl)-1,5-dihydro-pyrrol-2-one], for which, under “read-out: IC50”, the concentration for half-maximal inhibition (IC50) worked out at 7.78 µM.
